{"source": "paper PMC8306477", "about": "“Neuroprotective Effect of Terpenoids Recovered from Olive Oil By-Products” (Foods, 2021)", "key": {"[1]": {"experiment": "PAMPA-BBB permeability of terpenes of SS adsorbate", "type": "in vitro ADME", "description": "Previously, the BBB solution was prepared by dissolving 8 mg of PBL and 4 mg of cholesterol in 600 μL n-dodecane. Ethanolic olive leaves extract was dissolved in buffer (5 mM pH 7.4) as an initial solution at 10 mg/mL (EtOH/buffer, 1:1, v/v). Then, the filter membrane of the donor microplate was impregnated with 5 μL of BBB solution and the acceptor microplate was filled with 350 μL of buffer. Then, 200 μL of initial solution was added to the donor microplate which was assembled like a sandwich over the acceptor microplate. The microplate was incubated in the dark for 4 h at 37 °C and continuous agitation. After the incubation process, 200 μL were taken from each microplate, placed into a vial, dried, and reconstituted in 50 μL of EtOH to obtain donor and acceptor solutions. Both solutions were injected in the GC-qTOF-MS system to identify and compare the compounds present in both microplates. […] CD(t) is compound concentration in the donor well at time t and CA(t) is compound concentration in the acceptor well at time t."}, "[2]": {"parameters": "method as in PMID 23565574", "conditions": "BBB permeability of pharmacological drugs; cited from earlier work"}, "[3]": {"experiment": "ABTS•+ radical scavenging assay", "conditions": "mean ± SD (n = 3); 45 min, 30 °C", "description": "Antioxidant activity of all olive leaves extracts was measured using the ABTS^•+ radical scavenging assay according to Re et al., (1999) with modifications. […] After this time, radical ABTS^•+ solution was diluted with the buffer (5 mM, pH 7.4) to adjust the absorbance to 0.700 ± 0.002 measured at 734 nm wavelength and 30 °C. The 96-well microplate containing 250 μL ABTS^•+ solution and 100 μL of olive leaves extract at six different concentrations (from 14.3 to 143 μg/mL EtOH/H2O (1:1, v/v)) was incubated in the dark at 30 °C. After 45 min, the absorbance at 734 nm was measured. Trolox and ascorbic acid were used as reference standards while rosemary extract was used as natural reference standard. All measurements were performed in triplicate. ABTS^•+ inhibition percentage from olive leaves extracts was calculated as follows:(3) %Inh=AABTScontrol−(Asample−Asample blank)/AABTS control×100 where AABTScontrol is the absorbance of ABTS^•+ radical in buffer at t = 0 min; Asample, is the absorbance of an ABTS^•+ solution mixed with extracts; and Asample blank is the absorbance of samples without ABTS^•+."}, "[4]": {"experiment": "ROS scavenging capacity, ORAC method", "conditions": "mean ± SD (n = 3)", "description": "Oxygen radical absorbance capacity (ORAC) method was performed as reported by Ou et al. (2001). Briefly, 100 μL of the extract sample at different concentrations (5–50 μg/mL) in EtOH/H2O (1: 9, v/v), 100 μL of AAPH (590 mM) in PBS buffer (30 mM, pH = 7.5), 25 μL of fluorescein (10 μM) in PBS buffer, and 100 μL of PBS buffer were placed in a 96-well microplate. The fluorescence kinetic measurements were recorded at λexcitation = 485 nm and λemission = 530 nm at intervals of 5 min for a runtime of 60 min at 37 °C. Ascorbic acid was used as the reference standard. Each measurement was carried out in triplicate and the capacity of the extract for scavenging peroxyl radicals generated by spontaneous decomposition of AAPH was calculated through the inhibition percentage of the difference between the Area Under the Curve (AUC) of fluorescence decay in the presence (AUCsample) or absence (AUCcontrol) of the sample by Equation (4). (4) %Inh=AUCcontrol−AUCsample/AUCcontrol×100"}, "[5]": {"experiment": "RNS scavenging capacity, nitric oxide radical (Griess) assay", "conditions": "NO• scavenging; mean ± SD (n = 3)", "description": "RNS was evaluated by the nitric oxide (NO^•) radical scavenging assay of OLE, according to Ho et al. (2010), based on the reaction of Griess. The 96-well microplate filling distribution was as follows: 100 μL of extract sample at different concentrations (250–2500 μg/mL) in EtOH/H2O (1:3, v/v), and 50 μL of SNP (5 mM) in buffer (30 mM pH = 7.5). The mixture was incubated at room temperature for 2 h under direct light. Nitrile ion concentration was measured at […] after the addition of […] Ascorbic acid was used as the reference standard. Each measurement was carried out in triplicate and the capacity of the extract for scavenging NO^• radicals was calculated through inhibition percentage as described in Equation (3)."}, "[6]": {"conditions": "terpene within Sea Sand Adsorbate, 4 h, 37 °C, buffer pH 7.4, GC-qTOF-MS, read-out: PAMPA-BBB Log Pe (RSD %) (converted)"}}, "note": "Where two headings read alike, the source gives them in different places. Marks after values point to notes of the source that are not given here.", "data": [{"compound": "CC(C)=CCC/C(C)=C/CC/C(C)=C/CC/C=C(\\C)CC/C=C(\\C)CCC=C(C)C", "note": "[Squalene]", "values": [{"measurement": "Papp at 4 h", "setting": "[1]; [6]", "result": 13.2, "unit": "×10⁻⁶ cm/s"}]}, {"compound": "CC1(C)CC[C@]2(C)CC[C@]3(C)C(=CC[C@@H]4[C@@]5(C)CC[C@H](O)C(C)(C)[C@@H]5CC[C@]43C)[C@@H]2C1", "note": "[β-Amyrin]", "values": [{"measurement": "Papp at 4 h", "setting": "[1]; pH 7.4", "result": 0.479, "unit": "×10⁻⁶ cm/s"}]}, {"compound": "CC1(C)CC[C@]2(CO)CC[C@]3(C)C(=CC[C@@H]4[C@@]5(C)CC[C@H](O)C(C)(C)[C@@H]5CC[C@]43C)[C@@H]2C1", "note": "[Erythrodiol]", "values": [{"measurement": "Papp at 4 h", "setting": "[1]; [6]", "result": 0.575, "unit": "×10⁻⁶ cm/s"}]}, {"compound": "O=c1c(O)c(-c2ccc(O)c(O)c2)oc2cc(O)cc(O)c12", "note": "[Quercetin]", "values": [{"measurement": "log Pe ± SD", "setting": "[2]", "result": "−7.02 ± 0.08", "unit": "cm/s"}]}, {"compound": "Cc1c(C)c2c(c(C)c1O)CC[C@@](C)(CCC[C@H](C)CCC[C@H](C)CCCC(C)C)O2", "note": "[α-Tocopherol]", "values": [{"measurement": "Papp at 4 h", "setting": "[1]; [6]", "result": 1.15, "unit": "×10⁻⁶ cm/s"}]}, {"compound": "C[C@H]1[C@H](C)CC[C@]2(CO)CC[C@]3(C)C(=CC[C@@H]4[C@@]5(C)CC[C@H](O)C(C)(C)[C@@H]5CC[C@]43C)[C@H]12", "note": "[Uvaol]", "values": [{"measurement": "Papp at 4 h", "setting": "[1]; [6]", "result": 1.51, "unit": "×10⁻⁶ cm/s"}]}, {"compound": "COc1ccc2c3c1O[C@H]1C[C@@H](O)C=C[C@@]31CCN(C)C2", "note": "[Galantamine]", "values": [{"measurement": "log Pe ± SD", "setting": "[2]", "result": "−5.35 ± 0.02", "unit": "cm/s"}]}, {"compound": "O=C1O[C@H]([C@@H](O)CO)C(O)=C1O", "note": "[Ascorbic acid]", "values": [{"measurement": "Antioxidant Capacity by ABTS IC50", "setting": "[3]", "result": "25.00 ± 0.30 ^a µg/mL"}, {"measurement": "ROS IC50", "setting": "[4]", "result": "1.29 ± 0.09 ^b µg/mL"}, {"measurement": "RNS IC50", "setting": "[5]", "result": "1100.90 ± 13.96 ^b µg/mL"}]}, {"compound": "Cc1c(O)cc2c(c1C)O[C@](C)(CCC[C@H](C)CCC[C@H](C)CCCC(C)C)CC2", "note": "[γ-Tocopherol]", "values": [{"measurement": "Papp at 4 h", "setting": "[1]; [6]", "result": 8.91, "unit": "×10⁻⁶ cm/s"}]}, {"compound": "Cc1c(C)c2c(c(C)c1O)CCC(C)(C(=O)O)O2", "note": "(racemic) [Trolox, (±)-6-Hydroxy-2,5,7,8-tetramethylchromane-2-carboxylic acid]", "values": [{"measurement": "Antioxidant Capacity by ABTS IC50", "setting": "[3]", "result": "2.50 ± 0.02 ^r µg/mL"}, {"measurement": "ROS IC50", "setting": "[4]", "result": "0.98 ± 0.11 ^c µg/mL"}]}, {"compound": "CC[C@H](CC[C@@H](C)[C@H]1CC[C@H]2[C@@H]3CC=C4C[C@@H](O)CC[C@]4(C)[C@H]3CC[C@]12C)C(C)C", "note": "[β-Sitosterol]", "values": [{"measurement": "Papp at 4 h", "setting": "[1]; [6]", "result": 0.912, "unit": "×10⁻⁶ cm/s"}]}]}
